Assay results reported in patent US20250319063A1, “METHODS AND COMPOUNDS FOR RESTORING MUTANT P53 FUNCTION” (PMV PHARMACEUTICALS, INC., priority 2022, published 2025).
“Also recorded” adds a separate entry of the source. Read-outs that look alike come from different tables or passages of the source.

Assay: Single oral dose plasma pharmacokinetics in fasted and fed healthy subjects (food effect, ethnicity)
Type: in vivo, human
Details: for Tmax / Vd/F / half-life / AUC(0-t) / AUC(0-inf) / Cmax: both sexes, human, plasma, po; for Vd/F: read-out: Vz/F, GeoMean; for half-life: read-out: t½, GeoMean (converted)
Experimental: Compound 1 pharmacokinetics were analyzed in healthy subjects administered Compound 1 in a fasted state. A subject was considered fasted if the subject fasted overnight for at least 10 hours and water was permitted ad libitum except for 1 hour before and after drug administration. For fasted subjects, Compound 1 was administered with at least 8 ounces (240 mL) of water. Compound 1 pharmacokinetics were also analyzed in healthy subjects administered Compound 1 in a fed state. A subject was considered fed after consuming a high-fat meal 30 minutes prior to drug administration, and the meal was finished at least 5 minutes prior to drug administration. For both fasted and fed subjects, no food was permitted for at least 4 hours post-dose and water was permitted starting at 1 hour post-dose.
Subjects were healthy, non-smoking male and female Caucasian/non-Asian or Japanese participants 18 to 55 years of age with a BMI between […].
In Part 1 of the study, analysis was performed to compare 1000 mg Compound 1 in fed and fasted states. A dose of 1000 mg of Compound 1 consisted of two 500 mg tablets administered as a single oral dose. The analysis of Part 1 was performed at two separate time points in two different schemes (1A and 1B).
In scheme 1A, at period 1, Compound 1 analyzed in healthy subjects administered 1000 mg Compound 1 (n=3) in a fed state. Following a washout period of 7-9 days, these subjects were then administered 1000 mg Compound 1 in a fasted state.
Separately, in scheme 1B, at period 1, Compound 1 was analyzed in healthy subjects administered 1000 mg Compound 1 (n=3) in a fasted state. Following a washout period of 7-9 days, these subjects were then administered 1000 mg Compound 1 in a fed state.
In Part 2 of the study, analysis was performed to compare 2000 mg Compound 1 in fed and fasted states and also to compared ethnicity of Caucasian/non-Asian subjects and Japanese subjects. A dose of 2000 mg of Compound 1 consisted of four 500 mg tablets administered as a single oral dose.
For Caucasian/non-Asian subjects (n=20) the analysis was performed at two separate time points in two different schemes (2A and 2B). During scheme 2A, at period 1, Compound 1 was analyzed in subjects administered 2000 mg Compound 1 (n=10) in a fed state. Following a washout period of 7-9 days, at period 2, these subjects were then administered 2000 mg Compound 1 in a fasted state. Separately in scheme 2B, at period 1, Compound 1 was analyzed in subjects administered 2000 mg Compound 1 (n=10) in a fasted state. Following a washout period of 7-9 days, at period 2, these subjects were then administered 2000 mg Compound 1 in a fed state.
For Japanese subjects (n=6), Compound 1 pharmacokinetics were analyzed in subjects administered 2000 mg Compound 1 in a fasted state.
Blood for the analysis of study drug (Compound 1) and metabolite (M1) were collected.
Various pharmacokinetic (PK) parameters were determined for each subject. (Tables 9-12 and FIGS. 23-28).
Statistical analysis of Compound 1 plasma PK parameters were evaluated for food effects for Part 1 (Table 11) and Part 2 (Table 12). The log-transformed PK parameters were analyzed using an analysis of variance model with treatment (fed/fasted condition) and period as fixed effects and participant as a random effect.

[1] = 1000 mg, 1000 mg oral, Fasted (Part 1)
[2] = 1000 mg, 1000 mg oral, Fed (Part 1)
[3] = 2000 mg, 2000 mg oral, Fasted, Caucasian/Non-Asian
[4] = 2000 mg, 2000 mg oral, Fasted, Japanese
[5] = 2000 mg, 2000 mg oral, Fed, Caucasian/Non-Asian

With CNC(=O)c1ccc(NCC#Cc2cc3c(N[C@@H]4CCN(C)C[C@@H]4F)cccc3n2CC(F)(F)F)c(OC)c1 [Compound 1, 4-((3-(4-(((3S,4R)-3-fluoro-1-methylpiperidin-4-yl)amino)-1-(2,2,2-trifluoroethyl)-1H-indol-2-yl)prop-2-yn-1-yl)amino)-3-methoxy-N-methylbenzamide] the Tmax (1000 mg, 1000 mg oral, Fasted (Part 1), read-out: Tmax, Minimum, Maximum) was 1.54 to 2.51 h, the Vd/F [1] was 148 L and the half-life [1] was 15.4 h. It also gave an AUC(0-t) (1000 mg, 1000 mg oral, Fed (Part 1), read-out: AUC0-24, GeoMean) of 119 µg·h/mL, an AUC(0-t) (1000 mg, 1000 mg oral, Fed (Part 1), read-out: AUC0-96, GeoMean) of 177 µg·h/mL and an AUC(0-inf) (1000 mg, 1000 mg oral, Fed (Part 1), read-out: AUC0-inf, GeoMean) of 180 µg·h/mL. The AUC(0-inf) (1000 mg, 1000 mg oral, Fed (Part 1), read-out: AUC0-inf, Geometric Mean (analysis of variance model)) was 180 µg·h/mL, the AUC(0-t) (1000 mg, 1000 mg oral, Fed (Part 1), read-out: AUC0-last, GeoMean) was 177 µg·h/mL and the AUC(0-t) (1000 mg, 1000 mg oral, Fed (Part 1), read-out: AUC0-last, Geometric Mean (analysis of variance model)) was 177 µg·h/mL. For the same compound, the Cmax (1000 mg, 1000 mg oral, Fed (Part 1), read-out: Cmax, GeoMean) was 10600 ng/mL, the Cmax (1000 mg, 1000 mg oral, Fed (Part 1), read-out: Cmax, Geometric Mean (analysis of variance model)) was 10600 ng/mL and the Tmax (1000 mg, 1000 mg oral, Fed (Part 1), read-out: Tmax, Median) was 3.25 h. It also gave a Tmax (1000 mg, 1000 mg oral, Fed (Part 1), read-out: Tmax, Minimum, Maximum) of 1.51 to 5.01 h, a Vd/F [2] of 127 L and a half-life [2] of 15.8 h. For the same compound, the AUC(0-inf) (2000 mg, 2000 mg oral, Fasted (Part 2), read-out: AUC0-inf, Geometric Mean (analysis of variance model)) was 260 µg·h/mL, the AUC(0-t) (2000 mg, 2000 mg oral, Fasted (Part 2), read-out: AUC0-last, Geometric Mean (analysis of variance model)) was 259 µg·h/mL and the Cmax (2000 mg, 2000 mg oral, Fasted (Part 2), read-out: Cmax, Geometric Mean (analysis of variance model)) was 10400 ng/mL. The AUC(0-t) (2000 mg, 2000 mg oral, Fasted, Caucasian/Non-Asian, read-out: AUC0-24, GeoMean) was 138 µg·h/mL, the AUC(0-t) (2000 mg, 2000 mg oral, Fasted, Caucasian/Non-Asian, read-out: AUC0-96, GeoMean) was 255 µg·h/mL and the AUC(0-inf) (2000 mg, 2000 mg oral, Fasted, Caucasian/Non-Asian, read-out: AUC0-inf, GeoMean) was 259 µg·h/mL. The AUC(0-t) (2000 mg, 2000 mg oral, Fasted, Caucasian/Non-Asian, read-out: AUC0-last, GeoMean) was 254 µg·h/mL, the Cmax (2000 mg, 2000 mg oral, Fasted, Caucasian/Non-Asian, read-out: Cmax, GeoMean) was 10300 ng/mL and the Tmax (2000 mg, 2000 mg oral, Fasted, Caucasian/Non-Asian, read-out: Tmax, Median) was 2.52 h. The Tmax (2000 mg, 2000 mg oral, Fasted, Caucasian/Non-Asian, read-out: Tmax, Minimum, Maximum) was 1.03 to 5.94 h, the Vd/F [3] was 212 L and the half-life [3] was 19.9 h. For the same compound, the AUC(0-t) (2000 mg, 2000 mg oral, Fasted, Japanese, read-out: AUC0-24, GeoMean) was 193 µg·h/mL, the AUC(0-t) (2000 mg, 2000 mg oral, Fasted, Japanese, read-out: AUC0-96, GeoMean) was 326 µg·h/mL and the AUC(0-inf) (2000 mg, 2000 mg oral, Fasted, Japanese, read-out: AUC0-inf, GeoMean) was 338 µg·h/mL. For the same compound, the AUC(0-t) (2000 mg, 2000 mg oral, Fasted, Japanese, read-out: AUC0-last, GeoMean) was 326 µg·h/mL, the Cmax (2000 mg, 2000 mg oral, Fasted, Japanese, read-out: Cmax, GeoMean) was 14700 ng/mL and the Tmax (2000 mg, 2000 mg oral, Fasted, Japanese, read-out: Tmax, Median) was 3.94 h. For the same compound, the Vd/F [4] was 149 L, the half-life [4] was 17.4 h and the AUC(0-inf) (2000 mg, 2000 mg oral, Fed (Part 2), read-out: AUC0-inf, Geometric Mean (analysis of variance model)) was 465 µg·h/mL. For the same compound, the AUC(0-t) (2000 mg, 2000 mg oral, Fed (Part 2), read-out: AUC0-last, Geometric Mean (analysis of variance model)) was 449 µg·h/mL, the Cmax (2000 mg, 2000 mg oral, Fed (Part 2), read-out: Cmax, Geometric Mean (analysis of variance model)) was 19100 ng/mL and the AUC(0-t) (2000 mg, 2000 mg oral, Fed, Caucasian/Non-Asian, read-out: AUC0-24, GeoMean) was 250 µg·h/mL. The AUC(0-t) (2000 mg, 2000 mg oral, Fed, Caucasian/Non-Asian, read-out: AUC0-96, GeoMean) was 448 µg·h/mL, the AUC(0-inf) (2000 mg, 2000 mg oral, Fed, Caucasian/Non-Asian, read-out: AUC0-inf, GeoMean) was 479 µg·h/mL and the AUC(0-t) (2000 mg, 2000 mg oral, Fed, Caucasian/Non-Asian, read-out: AUC0-last, GeoMean) was 448 µg·h/mL. The Cmax (2000 mg, 2000 mg oral, Fed, Caucasian/Non-Asian, read-out: Cmax, GeoMean) was 19000 ng/mL, the Tmax (2000 mg, 2000 mg oral, Fed, Caucasian/Non-Asian, read-out: Tmax, Median) was 4.03 h and the Tmax (2000 mg, 2000 mg oral, Fed, Caucasian/Non-Asian, read-out: Tmax, Minimum, Maximum) was 2.11 to 8.08 h. The Vd/F [5] was 137 L, the half-life [5] was 22.7 h and the plasma concentration-time profile (single oral doses) was “reached the maximum peak rapidly and declined roughly in a bi-exponential manner; also recorded: rapidly absorbed”.
